Test results from ChEMBL document CHEMBL1201862, “PubChem BioAssay data set” (2004).
The source made the active and inactive calls.

Assays:
CHO = CHO cell viability loss, potency – luminescence, cytotoxicity control for TLR9-MyD88 binding inhibitor project, dose response (AID 588339); type: functional, cell-based, hamster; details: Cricetulus griseus;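 also: CHO cells stably coexpressing TLR9 and MyD88 fusions from primary screen; compound exposure lasted 48 hours before viability readout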
Beta Lactamase = Beta Lactamase (Pseudomonas aeruginosa, UniProt Q932Y6); experiment: BLA reporter interference, concentration series – BLA reporter cells, FRET fluorescence, artefact control for TLR9-MyD88 binding inhibitor project, dose response (AID 588341); type: cell-based;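 also: cell based assay in CHO-K1 cells stably expressing beta-lactamase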
Beta Lactamase, sequence (Q932Y6 whole entry): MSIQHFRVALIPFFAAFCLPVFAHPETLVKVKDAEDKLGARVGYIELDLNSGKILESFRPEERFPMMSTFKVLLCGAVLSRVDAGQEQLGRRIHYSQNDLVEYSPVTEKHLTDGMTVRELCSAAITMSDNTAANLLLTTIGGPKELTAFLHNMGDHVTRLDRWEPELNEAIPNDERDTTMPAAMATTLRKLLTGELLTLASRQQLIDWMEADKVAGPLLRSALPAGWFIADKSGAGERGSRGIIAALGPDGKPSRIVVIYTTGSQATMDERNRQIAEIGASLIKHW

Melanocortin receptor 4 = Melanocortin receptor 4 (Homo sapiens, UniProt P32245); experiment: inhibitors of MC4R cAMP signaling – cell-based, TR-FRET, biased antagonists, dose response (AID 602298); type: functional;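 also: antagonist potency against agonist-stimulated cAMP production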
Melanocortin receptor 4, sequence (P32245 whole entry): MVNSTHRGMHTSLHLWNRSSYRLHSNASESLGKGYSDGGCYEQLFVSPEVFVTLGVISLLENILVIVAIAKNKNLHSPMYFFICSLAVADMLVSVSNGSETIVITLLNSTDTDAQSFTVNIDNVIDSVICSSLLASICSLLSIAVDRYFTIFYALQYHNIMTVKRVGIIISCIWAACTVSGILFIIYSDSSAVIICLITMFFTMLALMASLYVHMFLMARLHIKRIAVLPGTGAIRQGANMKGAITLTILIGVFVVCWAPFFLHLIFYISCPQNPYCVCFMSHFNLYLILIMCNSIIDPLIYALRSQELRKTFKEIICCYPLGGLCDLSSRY

[1] = cAMP pathway inhibition in counterscreen cell line – TR-FRET cAMP detection, counter-screen for MC4R biased antagonist project, dose response (AID 602305); type: functional, cell-based;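 also: U2OS cells stimulated with forskolin near its EC80 as the cAMP inducer; potency is for inhibition of forskolin-stimulated cAMP signaling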
[2] = target: Testis-specific serine/threonine-protein kinase 2 (Homo sapiens, UniProt Q96PF2); type: functional;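 also: part of the Navigating the Kinome panel, target entry STK22B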
Testis-specific serine/threonine-protein kinase 2, sequence (Q96PF2 whole entry, the tested form may be a part): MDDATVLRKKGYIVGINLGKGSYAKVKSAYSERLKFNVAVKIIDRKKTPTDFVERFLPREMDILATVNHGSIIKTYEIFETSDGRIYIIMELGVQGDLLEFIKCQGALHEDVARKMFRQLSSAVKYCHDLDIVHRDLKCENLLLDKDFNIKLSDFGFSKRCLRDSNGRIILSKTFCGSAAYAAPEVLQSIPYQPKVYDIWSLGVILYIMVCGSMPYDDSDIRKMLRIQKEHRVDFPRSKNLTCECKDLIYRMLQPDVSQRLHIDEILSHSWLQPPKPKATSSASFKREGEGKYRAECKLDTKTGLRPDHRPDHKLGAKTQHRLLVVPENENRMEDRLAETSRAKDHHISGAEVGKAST

[3] = inhibition of ARNT PAS-B/TACC3 complex formation – biochemical, AlphaScreen, cherry-picked samples, confirmation (AID 651703); type: functional, Homo sapiens;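 also: His-tagged ARNT PAS-B domain paired with GST-TACC3 E629A dimer coactivator fragment; potency of inhibitors that break up the complex and lower AlphaScreen signal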
[4] = test system: Streptococcus sp. 'group A'; experiment: Streptococcus pyogenes SK(-)GAS viability under kanamycin – luminescence, BacTiterGlo, confirmation, counter-screen for streptokinase expression inhibitor project, dose response (AID 1900); type: functional, organism-based
Streptococcus = experiment: GAS UMAA2166 growth inhibition – luminescence, BacTiterGlo, counter-screen for streptokinase expression inhibitor project, dose response (AID 1915); type: functional, organism-based;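 also: potency for reduction of bacterial viability or growth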
[5] = target: 26S proteasome non-ATPase regulatory subunit 14 (Homo sapiens, UniProt O00487); experiment: inhibition of proteasome subunit RPN11 – biochemical, fluorescence polarization, uHTS hits, confirmation (AID 602368); type: functional
26S proteasome non-ATPase regulatory subunit 14, sequence (O00487 whole entry): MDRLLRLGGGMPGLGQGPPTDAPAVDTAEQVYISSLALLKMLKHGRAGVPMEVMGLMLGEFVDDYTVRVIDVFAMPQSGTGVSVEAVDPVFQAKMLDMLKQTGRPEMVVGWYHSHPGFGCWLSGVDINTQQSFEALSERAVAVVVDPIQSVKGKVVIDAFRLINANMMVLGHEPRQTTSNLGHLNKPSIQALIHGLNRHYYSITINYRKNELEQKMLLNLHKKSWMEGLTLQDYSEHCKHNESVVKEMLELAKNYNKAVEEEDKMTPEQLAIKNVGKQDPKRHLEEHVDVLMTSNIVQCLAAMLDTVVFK

[6] = target: 72 kDa type IV collagenase (Homo sapiens, UniProt P08253); experiment: Dose Response validation of uHTS RPN11 inhibitor hits using a MMP-2 Fluorescence assay.; type: functional
72 kDa type IV collagenase, sequence (P08253 whole entry): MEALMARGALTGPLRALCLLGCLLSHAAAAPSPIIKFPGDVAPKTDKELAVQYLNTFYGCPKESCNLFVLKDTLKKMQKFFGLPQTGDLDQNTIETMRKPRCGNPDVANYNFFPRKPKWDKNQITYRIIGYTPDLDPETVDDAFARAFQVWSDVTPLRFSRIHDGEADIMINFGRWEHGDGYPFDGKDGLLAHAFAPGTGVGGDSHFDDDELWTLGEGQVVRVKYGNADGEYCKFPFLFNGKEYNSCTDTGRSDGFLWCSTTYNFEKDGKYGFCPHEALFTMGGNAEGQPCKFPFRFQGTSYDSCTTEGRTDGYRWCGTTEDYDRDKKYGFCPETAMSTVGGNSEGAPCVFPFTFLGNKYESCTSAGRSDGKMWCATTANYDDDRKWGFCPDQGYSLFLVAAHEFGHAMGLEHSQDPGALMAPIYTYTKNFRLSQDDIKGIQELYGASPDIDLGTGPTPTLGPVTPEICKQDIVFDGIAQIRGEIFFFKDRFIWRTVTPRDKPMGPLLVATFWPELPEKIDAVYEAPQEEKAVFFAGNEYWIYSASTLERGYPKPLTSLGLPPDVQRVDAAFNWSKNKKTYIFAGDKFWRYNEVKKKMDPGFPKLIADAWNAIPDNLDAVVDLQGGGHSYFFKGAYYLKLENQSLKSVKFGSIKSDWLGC

Prothrombin = Prothrombin (Bos taurus, UniProt P00735); experiment: thrombin protease inhibitors – biochemical, fluorescence polarization, uHTS hits, dose response (AID 602369); type: functional
[7] = target: T1, Apoptotic protease-activating factor 1 (Homo sapiens, UniProt O14727); experiment: SAR analysis of small molecule Activators of Apaf-1 in a Fluorescent assay.; type: functional; details: read-out: EC50_Mean;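 also: caspase-3 cleavage of fluorogenic Rh110 DEVD substrate downstream of apoptosome activation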
T1 sequence (O14727 whole entry): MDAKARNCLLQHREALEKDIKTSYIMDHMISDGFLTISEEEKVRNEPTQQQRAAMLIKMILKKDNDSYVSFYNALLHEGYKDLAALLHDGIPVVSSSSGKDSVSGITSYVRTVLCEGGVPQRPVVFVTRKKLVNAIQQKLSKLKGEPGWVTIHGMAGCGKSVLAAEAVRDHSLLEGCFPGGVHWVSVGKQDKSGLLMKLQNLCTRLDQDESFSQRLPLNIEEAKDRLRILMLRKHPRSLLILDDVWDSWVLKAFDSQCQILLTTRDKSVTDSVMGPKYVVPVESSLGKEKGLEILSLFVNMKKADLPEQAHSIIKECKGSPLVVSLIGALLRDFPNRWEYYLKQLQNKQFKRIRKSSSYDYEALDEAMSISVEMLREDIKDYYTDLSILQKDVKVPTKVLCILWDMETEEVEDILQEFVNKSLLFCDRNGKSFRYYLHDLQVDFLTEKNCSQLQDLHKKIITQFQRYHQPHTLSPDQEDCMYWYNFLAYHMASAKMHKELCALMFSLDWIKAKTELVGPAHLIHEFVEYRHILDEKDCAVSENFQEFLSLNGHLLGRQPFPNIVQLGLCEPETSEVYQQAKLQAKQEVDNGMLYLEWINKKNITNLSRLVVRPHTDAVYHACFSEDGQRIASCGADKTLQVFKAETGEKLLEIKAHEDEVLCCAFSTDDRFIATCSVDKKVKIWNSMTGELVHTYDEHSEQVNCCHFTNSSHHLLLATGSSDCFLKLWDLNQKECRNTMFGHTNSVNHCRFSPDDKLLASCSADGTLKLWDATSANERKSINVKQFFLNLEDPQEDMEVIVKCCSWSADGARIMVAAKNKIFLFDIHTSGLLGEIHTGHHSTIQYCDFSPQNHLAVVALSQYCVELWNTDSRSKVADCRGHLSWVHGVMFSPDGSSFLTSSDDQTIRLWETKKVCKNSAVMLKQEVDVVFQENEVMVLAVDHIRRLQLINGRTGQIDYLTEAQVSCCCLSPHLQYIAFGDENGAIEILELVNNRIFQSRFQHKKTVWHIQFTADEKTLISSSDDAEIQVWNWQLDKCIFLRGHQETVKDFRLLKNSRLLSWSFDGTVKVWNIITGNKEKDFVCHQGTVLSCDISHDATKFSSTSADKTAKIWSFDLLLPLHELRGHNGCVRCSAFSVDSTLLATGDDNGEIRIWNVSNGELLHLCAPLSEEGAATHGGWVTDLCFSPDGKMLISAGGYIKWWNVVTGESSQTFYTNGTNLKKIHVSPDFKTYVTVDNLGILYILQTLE

[8] = target: T2, DNA dC->dU-editing enzyme APOBEC-3A (Homo sapiens, UniProt P31941); experiment: Dose Response confirmation of small molecule APOBEC3A DNA Deaminase Inhibitors via a fluorescence-based single-stranded DNA deaminase assay. [Related pubchem assays (depositor defined):AID493011, AID493024]; type: functional
T2 sequence (P31941 whole entry): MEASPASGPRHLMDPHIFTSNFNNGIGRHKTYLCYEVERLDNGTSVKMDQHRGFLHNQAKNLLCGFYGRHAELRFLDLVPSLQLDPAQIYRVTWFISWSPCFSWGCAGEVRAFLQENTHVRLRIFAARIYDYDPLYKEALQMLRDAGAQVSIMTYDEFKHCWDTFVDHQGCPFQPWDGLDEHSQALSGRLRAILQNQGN

[9] = target: T3, DNA dC->dU-editing enzyme APOBEC-3G (Homo sapiens, UniProt Q9HC16); type: functional
T3 sequence (Q9HC16 whole entry): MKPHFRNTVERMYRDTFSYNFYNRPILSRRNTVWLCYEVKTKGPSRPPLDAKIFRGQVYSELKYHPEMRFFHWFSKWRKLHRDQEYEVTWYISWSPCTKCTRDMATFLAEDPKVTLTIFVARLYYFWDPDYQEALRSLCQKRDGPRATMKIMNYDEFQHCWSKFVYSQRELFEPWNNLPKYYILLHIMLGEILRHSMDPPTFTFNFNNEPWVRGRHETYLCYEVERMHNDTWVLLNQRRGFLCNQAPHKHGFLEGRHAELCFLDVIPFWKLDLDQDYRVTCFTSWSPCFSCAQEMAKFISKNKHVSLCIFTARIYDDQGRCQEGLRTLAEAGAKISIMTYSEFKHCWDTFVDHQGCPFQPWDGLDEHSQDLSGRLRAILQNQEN

[10] = target: T2, DNA dC->dU-editing enzyme APOBEC-3A; experiment: SAR analysis of small molecule inhibitors of APOBEC3A DNA Deaminase via a fluorescence-based single-stranded DNA deaminase assay - Set 2.; type: functional; details: read-out: IC50_Mean
[11] = target: T3, DNA dC->dU-editing enzyme APOBEC-3G; experiment: SAR analysis of small molecule inhibitors of APOBEC3G DNA Deaminase via a fluorescence-based single-stranded DNA deaminase assay - Set 2.; type: functional; details: read-out: IC50_Mean
[12] = target: T3, DNA dC->dU-editing enzyme APOBEC-3G; experiment: inhibition of APOBEC3G ssDNA deamination – biochemical, fluorescence, single-stranded DNA substrate, SAR follow-up (AID 602136); type: functional; details: read-out: IC50_Mean
[13] = target: T2, DNA dC->dU-editing enzyme APOBEC-3A; experiment: SAR analysis of small molecule inhibitors of APOBEC3A DNA Deaminase via a fluorescence-based single-stranded DNA deaminase assay.; type: functional; details: read-out: IC50_Mean

## O=C(NCc1ccco1)c1cccc2c1C(=O)c1ccc(N3CCC(Cc4ccccc4)CC3)cc1S2(=O)=O
CHO
  IC50: > 49.8 µM (inactive)
Beta Lactamase
  IC50: 4.4 µM (active)

## CCc1nc2ccc(C(=O)NCc3ccc4c(c3)OCO4)cn2c1N(CCC(C)C)CCN(C)C
Melanocortin receptor 4
  IC50: 11.5 µM (inactive)
[1]
  IC50: > 64.6 µM (inactive)

## CC1CCN(C(=O)CC#N)CC1N(C)c1ncnc2[nH]ccc12 (stereo not drawn)
[2]
  Ki: > 1.58 µM (inactive)

## CC1CCCC(C)N1C(=O)COC(=O)c1ccc([N+](=O)[O-])o1 (stereo not drawn)
[3]
  AC50: 95.7 µM (active)

## CC(C)c1ccc(N2C(=O)/C(=C/NNC(=O)c3ccccc3O)C(=O)NC2=S)cc1
[4]
  EC50: 7.63 µM (active)
Streptococcus
  EC50: 7.21 µM (active)
[5]
  IC50: 52.9 µM (active)
[6]
  IC50: 45.2 µM (active)
Prothrombin
  IC50: 48.4 µM (active)

## O=C1CC2(CC(c3ccccc3Cl)=NO2)C(=O)N1c1ccc2ccccc2c1 (stereo not drawn)
[7]
  EC50: > 100 µM (inactive)

## CC(C)(C)NC(=O)CSc1nc2ccc(NC(=O)CSc3nnc(N)s3)cc2s1
[8]
  IC50: 3.87 µM (active)
[9]
  IC50: 18.4 µM (active)
[10]
  IC50: > 99 µM (inactive)
[11]
  IC50: 1.54 µM (active)
[12]
  IC50: 6.68 µM (active)
[13]
  IC50: 17.1 µM (inactive)
